Measured values taken from ChEMBL document CHEMBL5143635, “Synthesis and biological evaluation of artemisinin derivatives as potential MS agents” (Bioorg Med Chem Lett, 2022).
The source made the active and inactive calls. The calls are words filed in the database; no cut-off is given here.

What was measured:
[1] = Inhibition of Th17 cells differentiation in C57BL/6 mouse spleen CD4+ve Th cells assessed as decrease in IL-17A production at 10 uM measured after 4 days by flow cytometry analysis; type: functional; details: C57BL/6, CD4+ve Th, 96 h, time 4 day
[2] = tested on: CD4+ve Th; assay: Inhibition of Th17 cells differentiation in C57BL/6 mouse spleen CD4+ve Th cells assessed as decrease in IL-17A production at high concentrations measured after 4 days by flow cytometry analysis; type: functional, cell-based; details: time 4.0 day
[3] = Inhibition of Th17 cells differentiation in C57BL/6 mouse spleen CD4+ve Th cells assessed as decrease in IL-17A production at 10 uM measured after 4 days by flow cytometry analysis (reference value: 23%); type: functional; details: C57BL/6, CD4+ve Th, 96 h, time 4 day
[4] = Inhibition of Th1 cells differentiation in C57BL/6 mouse spleen CD4+ve Th cells assessed as decrease in IFNgamma production at 10 uM measured after 4 days by flow cytometry analysis (reference value: 41%); type: functional; details: C57BL/6, CD4+ve Th, 96 h, time 4 day
[5] = tested on: Mus musculus; assay: Immunosuppressive activity in MOG 35-55 residues/pertussis toxin-immunized autoimmune encephalomyelitis C57BL/6 mouse model assessed as suppression of disease progression by measuring clinical cumulative score at 100 mg/kg,po administered daily from day 3 measured for 21 days; type: functional, organism-based; details: time 21.0 day
[6] = Toxicity in MOG 35-55 residues/pertussis toxin-immunized autoimmune encephalomyelitis C57BL/6 mouse model assessed as change in body weight at 100 mg/kg,po administered daily from day 3 measured for 21 days; type: organism-based; details: in vivo, 504 h, time 21 day
[7] = Inhibition of Th17 cells differentiation in C57BL/6 mouse spleen CD4+ve Th cells assessed as decrease in IL-17A production at 10 uM measured after 4 days by flow cytometry analysis (reference value: 28%); type: functional; details: C57BL/6, CD4+ve Th, 96 h, time 4 day

| SMILES | inhibition at 10 µM [1] [%] | inhibition [2] | other results |
| --- | --- | --- | --- |
| C[C@H]1[C@@H](SC(=O)Nc2ccc(OC(F)(F)F)cc2)O[C@@H]2O[C@@]3(C)CC[C@H]4[C@H](C)CC[C@@H]1[C@@]24OO3 | < 6 | Active |  |
| C[C@H]1[C@@H](S)O[C@@H]2O[C@@]3(C)CC[C@H]4[C@H](C)CC[C@@H]1[C@@]24OO3 |  |  | inhibition at 10 µM [3]: 12% |
| C[C@H]1[C@@H](OC(=O)CCCC[C@H]2CCSS2)O[C@@H]2O[C@@]3(C)CC[C@H]4[C@H](C)CC[C@@H]1[C@@]24OO3 |  |  | inhibition at 10 µM [4]: 3%; Activity [5]: Active; Activity [6]: Toxic; inhibition at 10 µM [7]: 8% |
| C[C@H]1[C@@H](SC(=O)CCCC[C@H]2CCSS2)O[C@@H]2O[C@@]3(C)CC[C@H]4[C@H](C)CC[C@@H]1[C@@]24OO3 | < 6 | Active |  |
| C[C@@H]1CC[C@H]2C(C)(C)[C@@H](OC(=O)Nc3ccc(OC(F)(F)F)cc3)O[C@@H]3O[C@@]4(C)CC[C@@H]1[C@]32OO4 | < 6 | Active |  |
| C[C@@H]1CC[C@H]2[C@@](C)(F)[C@@H](OC(=O)Nc3ccc(OC(F)(F)F)cc3)O[C@@H]3O[C@@]4(C)CC[C@@H]1[C@]32OO4 | < 6 | Active |  |
| C[C@@H]1CC[C@H]2[C@@](C)(Cl)[C@@H](OC(=O)Nc3ccc(OC(F)(F)F)cc3)O[C@@H]3O[C@@]4(C)CC[C@@H]1[C@]32OO4 | < 6 | Active |  |
